# Experimental data published in US5804577A, “Cephalosporin derivatives” (Hoffmann-La Roche Inc., priority 1995, dated 1998).
# Structures can show the parent of a compound that is named as a salt. Where two headings read alike, the source gives them in different places.
# Tests used:
# Assay in all cases: MIC by agar dilution method in Mueller Hinton agar
# Type in all cases: cell-based
# E. faecalis 6 = details: Enterococcus faecalis
# Procedure: (§1) In vitro activity was determined by minimum inhibitory concentration in a microorganism spectrum by the agar dilution method in Mueller Hinton agar.
# E. cloacae 908SSi = details: Enterobacter cloacae
# Procedure: as §1
# K. pneumoniae 418 = details: Klebsiella pneumoniae, 418
# Procedure: as §1
# X. maltophilia 1AC739 = details: Stenotrophomonas maltophilia
# Procedure: as §1
# S. marscescens 69438 = tested on: S. marscescens 69438
# Procedure: as §1
# P. aeruginosa 27853 = details: Pseudomonas aeruginosa
# Procedure: as §1
# E. coli 25922 = details: Escherichia coli
# Procedure: as §1
# C. freundii 43 = details: Citrobacter freundii
# Procedure: as §1
# S. aureus 6538 = details: Staphylococcus aureus
# Procedure: as §1
# P. vulgaris 1028 = details: Proteus vulgaris
# Procedure: as §1
# C. freundii 902 = details: Citrobacter freundii
# Procedure: as §1
# S. agalactiae QK44 = details: Streptococcus agalactiae
# Procedure: as §1
# L. monocytogenes BK23 = details: Listeria monocytogenes
# Procedure: as §1
# Acinetobacter sp. 51-156 = details: SP.51156
# Procedure: as §1
# S. viridans group 016 = details: Streptococcus viridans, GROUP016
# Procedure: as §1
# S. aureus 734 MRSA = details: Staphylococcus aureus
# Procedure: as §1
# E. cloacae 908R = details: Enterobacter cloacae
# Procedure: as §1
# C. difficile ZH1 = details: Clostridioides difficile
# Procedure: as §1
# [1] = tested on: P. asaccharolyticus 29743; details: Peptoniphilus asaccharolyticus
# Procedure: as §1
# B. fragilis ATCC25285 = details: Bacteroides fragilis, ATCC25285
# Procedure: as §1
# M. morganii 6H-137 = details: Morganella morganii, 6H137
# Procedure: as §1
# P. mirabilis 2117 = details: Proteus mirabilis; P. mirabilis 2117; read-out: MIC
# Procedure: as §1
# M. catarrhalis RA21 = details: Moraxella catarrhalis
# Procedure: as §1
# [2] = X. maltophilia 1AC739, read-out: MIC
# [3] = Acinetobacter sp. 51-156, read-out: MIC
# [4] = C. difficile ZH1, read-out: MIC
# [5] = P. vulgaris 1028, read-out: MIC
# [6] = P. aeruginosa 27853, read-out: MIC
# [7] = E. cloacae 908SSi, read-out: MIC
# [8] = L. monocytogenes BK23, read-out: MIC
SMILES,MIC (E. faecalis 6; 6),MIC (E. cloacae 908SSi; 908SSI),MIC (K. pneumoniae 418),MIC (S. marscescens 69438),MIC (P. aeruginosa 27853; 27853),"MIC (C. freundii 43; C. freundii 43, read-out: MIC)",MIC (S. aureus 6538; 6538),MIC (P. vulgaris 1028; 1028),MIC (C. freundii 902; 902),MIC (S. agalactiae QK44),MIC (L. monocytogenes BK23; BK23),MIC (S. viridans group 016),MIC (S. aureus 734 MRSA; MRSA),"MIC (E. cloacae 908R; E. cloacae 908R, read-out: MIC)",MIC (X. maltophilia 1AC739; 1AC739),MIC (B. fragilis ATCC25285),MIC (M. catarrhalis RA21; RA21),MIC (Acinetobacter sp. 51-156; Acinetobacter),MIC (E. cloacae 908R; 908R),MIC (P. aeruginosa 27853; [6]),further results
"Nc1nc(/C(=N/O)C(=O)N[C@@H]2C(=O)N3C(C(=O)O)=C(/C=C4\CCN(c5ccc(O)c(F)c5)C4=O)CS[C@H]23)cs1 [C, (6R,7R)-7-[(Z)-2-(2-Amino-thiazol-4-yl)-2-(hydroxyimino-acetylamino]-3-[(E)-1-(3-fluoro-4-hydroxy-phenyl)-2-oxo-pyrrolidin-3-ylidenemethyl]-8-oxo-5-thia-1-azabicyclo[4.2.0]oct-2-ene-2-carboxylic acid trifluoroacetate]",1 µg/mL,0.5 µg/mL,0.12 µg/mL,1 µg/mL,4 µg/mL,4 µg/mL,0.5 µg/mL,8 µg/mL,0.12 µg/mL,0.06 µg/mL,1 µg/mL,0.12 µg/mL,4 µg/mL,32 µg/mL,,,,,,,MIC (X. maltophilia 1AC739; [2]): > 32 µg/mL; MIC (E. coli 25922; 25922): 0.12 µg/mL; MIC (Acinetobacter sp. 51-156; [3]): 32 µg/mL
"Nc1ccc(CN2CC/C(=C\C3=C(C(=O)O)N4C(=O)[C@@H](NC(=O)/C(=N\O)c5csc(N)n5)[C@H]4SC3)C2=O)cc1 [D, (6R,7R)-7-[(Z)-2-(2-Amino-thiazol-4-yl)-2-(hydroxyimino-acetylamino]-3-[(E)-1-(4-aminobenzyl)-2-oxo-pyrrolidin-3-ylidenemethyl]-8-oxo-5-thia-1-azabicyclo[4.2.0-]oct-2-ene-2-carboxylic acid trifluoroacetate]",1 µg/mL,0.5 µg/mL,0.25 µg/mL,1 µg/mL,> 32 µg/mL,,1 µg/mL,> 32 µg/mL,,0.25 µg/mL,4 µg/mL,0.5 µg/mL,8 µg/mL,,> 32 µg/mL,8 µg/mL,4 µg/mL,32 µg/mL,> 32 µg/mL,,"MIC (C. difficile ZH1; [4]): 16 µg/mL; MIC (E. coli 25922; E. coli 25922, read-out: MIC): 0.25 µg/mL; MIC [1]: 1 µg/mL; MIC (C. freundii 43; 43): 8 µg/mL; MIC (C. freundii 902; C. freundii 902, read-out: MIC): 0.25 µg/mL; MIC (M. morganii 6H-137; M. morganii 6H-137, read-out: MIC): 0.12 µg/mL; MIC (P. mirabilis 2117): 0.12 µg/mL"
"Nc1nc(/C(=N/O)C(=O)N[C@@H]2C(=O)N3C(C(=O)O)=C(/C=C4\CCN(Cc5cccc(O)c5)C4=O)CS[C@H]23)cs1 [E, (6R,7R)-7-[(Z)-2-(2-Amino-thiazol-4-yl)-2-(hydroxyimino-acetylamino]-3-[(E)-1-(3-hydroxybenzyl)-2-oxo-pyrrolidin-3-ylidenemethyl]-8-oxo-5-thia-1-azabicyclo[4.2.0]oct-2-ene-2-carboxylic acid trifluoroacetate]",0.5 µg/mL,0.5 µg/mL,0.25 µg/mL,0.5 µg/mL,8 µg/mL,4 µg/mL,,,0.25 µg/mL,0.12 µg/mL,2 µg/mL,0.5 µg/mL,,8 µg/mL,> 32 µg/mL,8 µg/mL,2 µg/mL,32 µg/mL,,,"MIC (C. difficile ZH1; [4]): 4 µg/mL; MIC (S. aureus 6538; S. aureus 6538, read-out: MIC): 0.5 µg/mL; MIC (P. vulgaris 1028; [5]): 16 µg/mL; MIC (S. aureus 734 MRSA; S. aureus 734 MRSA, read-out: MIC): 16 µg/mL"
"Nc1nc(/C(=N/O)C(=O)N[C@@H]2C(=O)N3C(C(=O)O)=C(/C=C4\CCN(c5nncs5)C4=O)CS[C@H]23)cs1 [F, (6R,7R)-7-[(Z)-2-(2-Amino-thiazol-4-yl)-2-hydroxyimino-acetylamino]-8-oxo-3-[(E)-2-oxo-1-(1,3,4-thiadiazol-2-yl)-pyrrolidin-3-ylidenemethyl]-5-thia-1-aza-bicyclo[4.2.0]oct-2-ene-2-carboxylic acid trifluoracetate (1:1)]",1 µg/mL,1 µg/mL,0.25 µg/mL,32 µg/mL,,8 µg/mL,1 µg/mL,> 32 µg/mL,0.12 µg/mL,0.25 µg/mL,4 µg/mL,0.5 µg/mL,16 µg/mL,,> 32 µg/mL,,> 16 µg/mL,> 32 µg/mL,> 32 µg/mL,> 32 µg/mL,MIC (E. coli 25922; 25922): 0.12 µg/mL; MIC (M. morganii 6H-137): 0.5 µg/mL; MIC (P. mirabilis 2117): 0.25 µg/mL
"Nc1nc(/C(=N/O)C(=O)N[C@@H]2C(=O)N3C(C(=O)O)=C(/C=C4\CCN(C5CCNCC5)C4=O)CS[C@H]23)cs1 [G, (6R,7R)-7-[(Z)-2-(2-Amino-thiazol-4-yl)-2-hydroxyimino-acetylamino]-8-oxo-3-[(E)-2-oxo-1-piperidin-4-yl-pyrrolidin-3-ylidenemethyl]-5-thia-1-aza-bicyclo[4.2.0-]oct-2-ene-2-carboxylic acid hydrochloride (1:2)]",1 µg/mL,,,1 µg/mL,,,1 µg/mL,> 32 µg/mL,,0.25 µg/mL,,,8 µg/mL,4 µg/mL,> 32 µg/mL,16 µg/mL,2 µg/mL,32 µg/mL,,8 µg/mL,MIC (E. cloacae 908SSi; [7]): 0.25 µg/mL; MIC (C. difficile ZH1; ZH1): 16 µg/mL; MIC [1]: 1 µg/mL; MIC (C. freundii 43; 43): 2 µg/mL; MIC (L. monocytogenes BK23; [8]): 4 µg/mL
"CO/N=C(\C(=O)N[C@@H]1C(=O)N2C(C(=O)O)=C(CSc3nc(=O)c(=O)[nH]n3C)CS[C@H]12)c1csc(N)n1 [II, reference compound]",,,,,,32 µg/mL,4 µg/mL,,,,,,> 32 µg/mL,,,,,,> 32 µg/mL,16 µg/mL,"MIC (E. faecalis 6; E. faecalis 6, read-out: MIC): > 32 µg/mL; MIC (E. cloacae 908SSi; [7]): 0.25 µg/mL; MIC (X. maltophilia 1AC739; [2]): > 32 µg/mL; MIC (S. marscescens 69438; S. marscescens 69438, read-out: MIC): 0.25 µg/mL; MIC (P. vulgaris 1028; [5]): 0.12 µg/mL; MIC (C. freundii 902; C. freundii 902, read-out: MIC): 0.25 µg/mL; MIC (L. monocytogenes BK23; [8]): > 16 µg/mL; MIC (M. catarrhalis RA21; M. catarrhalis RA21, read-out: MIC): 1 µg/mL; MIC (Acinetobacter sp. 51-156; [3]): 32 µg/mL; MIC (S. viridans group 016; S. viridans group 016, read-out: MIC): 0.25 µg/mL"
